Consider three compounds from publication PMC3297008, “Novel Marine Phenazines as Potential Cancer Chemopreventive and Anti-Inflammatory Agents” (Marine Drugs, 2012).

Test [1] deals with HL-60 cells. Nature of the test: NIM-DAPI cell cycle analysis / apoptosis of HL-60 cells. It counts as cell-based. As to conditions: 24 h incubation, various concentrations. On the procedure: Figure 3 NIM-DAPI cell cycle analysis of HL-60 cells. HL-60 cells (2 × 10^5 cells/well) were treated with different concentrations of the indicated compounds for 24 h. The media were discarded, and 4',6-diamidino-2-phenylindole solution (NIM-DAPI; Beckman Coulter) was added just before the measurement using a Cell Lab Quanta™ SC (Beckman Coulter) flow cytometer. NIM-DAPI-stained cells were analyzed after excitation. […] Results are representative of two experiments in triplicate.
HL-60 cells (2 × 10^5 cells/well) were treated with samples for 24 h. The media were discarded and nuclear isolation medium (4',6-diamidino-2-phenylindole, NIM-DAPI; Beckman Coulter) was added just before the measurement using a Cell Lab Quanta™ SC (Beckman Coulter) flow cytometer. NIM-DAPI-stained cells were analyzed after excitation.
HL-60 cells at a concentration of 2 × 10^6 cells/mL were incubated with testing phenazines at different concentrations for 24 h. The cells were fixed with 1% paraformaldehyde in PBS and treated with ethanol to permiabilize the cells. Positive and negative control cells were provided already fixed. The DNA labeling reaction was carried out at 22–24 °C overnight. This assay was run on a Cell Lab Quanta™ SC, Beckman Coulter flow cytometer equipped with a 488 nm Argon laser as the light source. Propidium Iodide (total cellular DNA) and Fluorescein (apoptotic cells) were used. Propidium Iodide (PI) fluoresces at about 623 nm and Fluorescein at 520 nm when excited at 488 nm. Following the manufacturer’s instructions, an APO-BRDU™ Kit (Phoenix Flow Systems, Inc.) with a two color TUNEL (Terminal deoxynucleotide transferase dUTP Nick End Labeling) capability for labeling DNA breaks and total cellular DNA to detect apoptotic cells was used.

For test [2], the system named is COX-2 mRNA expression. Nature of the test: COX-2 mRNA expression in LPS-treated RAW 264.7 cells (real time quantitative PCR). The format is cell-based. As to conditions: 50 µM. The text has this: (§1) Figure 2 Effect of phenazines on COX-2 (black) and iNOS (gray) mRNA expression in RAW 264.7 cells. Total RNA was isolated using the TRIZOL® Reagent method (Invitrogen) from RAW 264.7 cells (2 × 10^5 cells/well) after treatment with samples. cDNA was synthesized using the RT^2 First Strand Kit (C-03, SA Biosciences) protocol. cDNA was used for quantitative real time PCRs with fluorescent Power SyBR® Green PCR master mix (Applied Biosystems), employing GAPDH, iNOS, COX-2 specific primers, and a 7300 Real Time PCR System (Applied Biosystems). The results were derived from two independent RNA preparations employing identical triplicates in each analysis and quantitated using GAPDH as the internal control, following the manufacturer’s instructions. (A) GAPDH standard curve for quantitation of iNOS and COX-2 expression; (B) Levels of COX-2 (black) and iNOS (gray) mRNA expression. The concentration and duration of treatment had no significant effect on the viability of Raw 264.7 cells.
(§2) Total mRNA samples were isolated, and cDNA was amplified with specific primers, using GAPDH as housekeeping gene. LPS induced the expression of COX-2 and iNOS mRNA by approximately 11- and 24-fold, respectively. […]
(§3) RAW 264.7 cells (2 × 10^5 cells/well) were treated with test samples and total RNA was isolated with TRIZOL® Reagent (Invitrogen). […] The results were derived from two independent RNA preparations employing identical triplicates in each analysis and quantified using GAPDH as the internal control, following the manufacturer’s instructions. The fluorescence intensity (Rn) corresponding to the cycle of threshold value (Ct) is used to quantitate a given mRNA, employing the GAPDH standard curve (Figure 3A). The equation Y = −3.9408 X + 31.791 was used to quantify the relative mRNA content, where Y represents the number of cycles corresponding to the Ct (i.e., fluorescence intensity for a given mRNA species), and X represents the log copy number (C0) from which the relative content of mRNA was quantitated. […]

The subject of test [3] is PGE2 production in LPS-induced RAW 264.7 cells. Nature of the test: LPS-induced PGE2 production in RAW 264.7 cells (ELISA). The conditions noted are these: for IC50: read-out: PGE2 IC50; for inhibition at 50 µM: RAW264.7, read-out: PGE2 % inhibition (50 µM). It counts as cell-based. The procedure: RAW 264.7 cells (1 × 10^5 cells/well, 200 µL) were incubated in a 96-well culture plate in the presence of 5% CO2 at 37 °C for 24 h. The medium was changed to non-colored DMEM containing 5% FBS, and the cells were treated with various concentrations of compounds for 30 min followed by 1 μg/mL of LPS treatment for 24 h. Cell media were collected, diluted 18-times and used for measuring PGE2. Nunc-Immuno 96-well plates were coated with secondary antibody (goat anti-mouse IgG) affinity purified (Jackson Immuno Research Laboratories). Aliquots of cell media were added to the immune plate with primary PGE2 monoclonal antibody (Cayman Chemical) and a tracer PGE2-acetylcholinesterase (Cayman Chemical) and incubated overnight at room temperature in the dark. The next day, the wells were aspirated, washed, 200 µL of Elman’s reagent was added in each well, and incubated 2–5 h at 37 °C out of direct light until control wells reach an optical density 0.4–0.5. Gentle rotating/shaking was used to decrease the time required for color development. Absorbance was read at 412 nm. The PGE2 concentration of each sample was calculated from a PGE2 standard curve (PGE2 from Cayman Chemical). The percent inhibition as a function of the inhibitor concentration was graphed to determine the IC50 values (concentration at which there was 50% inhibition).
On the technique in general: In an ELISA, binding on a coated surface is turned into a signal by an enzyme label.

Test [4] has as its system iNOS mRNA expression. The test can be described thus: iNOS mRNA expression in LPS-treated RAW 264.7 cells (real time quantitative PCR). The format is cell-based. As to conditions: 50 µM.
Source text: as §1, §2, §3

In test [5] the test system is L1210 cells. Further details: method as in PMID 2753825. As to conditions: cited from earlier work.
Test [6] deals with P388 cells. Further details: method as in PMID 2753825. The conditions noted are these: cited from earlier work.
Test [7] has as its system 5-α-reductase. Further details: method as in PMID 2503481. The conditions noted are these: derived from dog prostate; cited from earlier work.
For test [8], the system named is 5-α-reductase. Further details: method as in PMID 2503481. As to conditions: derived from human prostate; cited from earlier work.
For test [9], the system named is 5-α-reductase. Further details: method as in PMID 2503481. As to conditions: derived from rat prostate; cited from earlier work.
The mark [10] stands for this setting: Mus musculus, RAW264.7, LPS-induced RAW 264.7 cells.
Where [11] appears, read: Mus musculus, LPS-induced RAW 264.7 cells.

Like-named read-outs stand apart in the source and are kept apart here.

For `CC(C)=CCn1c2ccc(Br)c(=O)c-2nc2ccccc21` [Phenazine 2], the “accumulation of HL-60 cells in subG1 phase (apoptosis)” value (“accumulation of HL-60 cells” for short) in test [1] is “accumulated in the subG1 phase of the cell cycle”. Moreover, in test [2], the “suppression of COX-2 mRNA expression” value was determined as 50%. For the same compound, in test [3] (setting [10]), the IC50 worked out at 0.89 ± 0.22 µM. In test [3] (setting [11]), the inhibition at 50 µM stood at 86.9 ± 12.9%. The “suppression of iNOS mRNA expression” value in test [4] stood at 43%.

Consider `CC1=C(Cn2c3cccc(=O)c-3nc3ccccc32)CCC(C)(C)C1` [Lavanducyanin 3, lavanducyanin], for which, in test [5], the “growth inhibition of L1210 cells in culture” value was “strongly inhibits the growth”. In addition, the “accumulation of HL-60 cells” value in test [1] is “accumulated in the subG1 phase of the cell cycle”. Besides, the “growth inhibition of P388 cells in culture” value in test [6] is on record as “strongly inhibits the growth”. In addition, in [2], the “suppression of COX-2 mRNA expression” value turned out to be 51%. Moreover, the “inhibition of 5-α-reductase” value in test [7], in test [8] and in [9] was “competitively inhibits” each time. Further, the concentration for half-maximal inhibition (IC50) in [3] (setting [10]) is 0.63 ± 0.16 µM. In test [3] (setting [11]), the inhibition at 50 µM turned out to be 80.6 ± 18.4%. In addition, the “suppression of iNOS mRNA expression” value in test [4] is 46%.

Turning to `CC1=C(Cn2c3ccc(Br)c(=O)c-3nc3ccccc32)CCC(C)(C)C1` [Phenazine 1], the “accumulation of HL-60 cells” value in test [1] is listed as “accumulated in the subG1 phase of the cell cycle”. Also, the “suppression of COX-2 mRNA expression” value in test [2] worked out at 40%. Besides, the figures for the concentration for half-maximal inhibition (IC50) in test [3] (LPS-induced RAW 264.7 cells) and in [3] (setting [10]) were 7.15 ± 2.03 µM and 7.5 µM, respectively. The inhibition at 50 µM in test [3] (setting [11]) was 72.5 ± 16.3%. The “suppression of iNOS mRNA expression” value in [4] was 21%.

The term IC50 denotes the concentration at which inhibition is half-maximal. The inhibition is how much of the control response was suppressed.
